US7985774B2, “Use of 3,5-seco-4-nor-cholestane derivatives for obtaining a cytoprotective drug” (Trophos, priority 2006, dated 2011)

Key:
[1] = system: C57BL6 mice; test: In vivo model of myocardium infarction (coronary occlusion-reperfusion)
Protocol: The purpose of this experiment is to study in vivo the cardioprotective properties of the compounds, 3,5-seco-4-nor-cholestan-5-one oxime-3-ol and 3,5-seco-4-nor-cholestan-5-one oxime-3-N,N-dimethylglycine ester, in a murine coronary occlusion-reperfusion model.
The compounds to be tested are administered intravenously in mice, 5 minutes before reperfusion of the myocardium ischemiated beforehand. As controls, carriers of the compounds beta-cyclodextrin (hereafter called βCD) and water, respectively, are administered under the same conditions as for the compounds.
In order to determine the effect of the tested compounds, the size of the infarction is measured after 24 hour reperfusion.
6-8 week old male C57BL6 mice are anaesthetized with sodium pentobarbital (50 mg/kg i.p.) and are ventilated after intubation with an O2/CO2 (95%/5%) mixture throughout the experiment. The surface electrocardiogram (ECG) is recorded and viewed on an oscilloscope all along surgery. Under strict asepsis conditions, the jugular vein is catheterized for intravenous administration of the compounds. A left lateral thoracotomy is performed and after pericardiotomy, a major branch of the left coronary artery is localized in the latero-posterior region of the left ventricle. A prolene no. 8 suture is positioned around this artery so as to form a mobile loop for making a temporary coronary occlusion.
All the mice were subject to a 30 minute temporary coronary occlusion. Ischemia of the myocardium region is confirmed by cyanosis of the myocardium surface and a deviation of the ST segment of the electrocardiogram.
Each of the compounds (treated group, n=10) or its solvent (control group, n=10) was administered as a bolus intravenously, 5 min before lifting the 30 minutes of coronary occlusion.
3,5-seco-4-nor-cholestan-5-one oxime-3-ol, dissolved beforehand to a final concentration of 0.46 mg/ml in a 30% βCD solution in phosphate buffer prepared by saturation followed by centrifugation, is administered at a dosage of 1 mg/kg.
3,5-seco-4-nor-cholestan-5-one oxime-3-N,N-dimethylglycine ester, dissolved beforehand to a final concentration of 1.56 mg/ml in sterile water by stirring and sonication, is administered at a dosage of 3.9 mg/kg.
The same volume of carrier is administered in the corresponding control groups.
Twenty four hours after the end of coronary occlusion, the mice are re-anaesthetized with sodium pentobarbital (50 mg/kg i.p.) and heparin is administered intravenously (Choay© heparin 1,000 IU/kg). A ligature of the coronary artery is achieved at the same location having been subject to the first occlusion 24 h previously. The mice are then euthanized with a lethal saturated dose of potassium chloride and their heart is rapidly excised and then mounted through the aorta artery on a retrograde perfusion system of the Langendorff type.
A 5% Evans blue solution is perfused retrogradely so that the healthy myocardium is colored in blue; the area made ischemic during the coronary occlusion, or <<area of risk AR>> remaining uncolored by default.
The left ventricle is then cut out into 5 slices with equal thicknesses (1 mm) by means of a slicer specially designed for hearts of mice (Les Isolants de Paris, Palaiseau), which are then weighed.
These slices are incubated in a 1% triphenyltetrazolium chloride solution (TTC, Sigma, Poole, UK) at pH 7.4 for 20 min at 37° C. and then set in 4% formol. TTC has the property of coloring the non-infarcted myocardium in red, and so showing the infarcted areas in white. Each heart slice is placed under a stereo microscope for taking a high definition digital photograph.
Quantification of infarction and the area of risk is carried out by planimetry (Scion Image, Scion, Frederick Md., USA) and referred to the weight of each slice.
The area of risk (non-blue area) is expressed as a percentage of the weight of the left ventricle. The infarction sizes are expressed as a percentage of the weight of the area of risk. […]

[2] = system: rabbit ventricular cardiomyocytes; test: Contractile dysfunction test induced by doxorubicin (sarcomer shortening); type: cell-based; conditions: doxorubicin 1 μM alone, after 4 hrs of exposure; control −19.49±2.06%
Protocol: A stock solution of 3,5-seco-4-nor-cholestan-5-one oxime-3-ol at a concentration of 10 mM in 100% DMSO was used.
The final concentration in DMSO was the same for all the experimental points, independently of the molecular concentrations used.
3,5-seco-4-nor-cholestan-5-one oxime-3-ol was tested at concentrations of 0.1 and 0.3 μM, diluted in a Tyrode solution (composition in mmol/L: NaCl 135, KCl 5.4, NaH2PO4 0.33, CaCl2 1.2, MgCl2 1.0, Hepes 10; pH adjusted to 7.4 with NaOH).
Isolated ventricular cells are obtained from hearts of male New Zealand rabbits as described in A. d'Anglemont de Tassigny et al., Fund. Clin. Pharmacol, 18: 531-38, 2004. Briefly, the rabbits (2.0-2.5 kg) are anaesthetized with a pentobarbital solution (50 mg/kg) and they then receive heparin (200 IU/kg). The hearts are excised and immediately perfused, for 10-15 minutes by means of a Langendorff apparatus without recirculation with an oxygenated tyrode (calcium-free) isotonic solution (95%, 2-5% CO2) (in mM: NaCl 135, KCl 5.4, Na2PO4 0.33, MgCl2 1.0, HEPES 10, pH adjusted to 7.4 with 1N NaOH at 37° C., 280-300 mOsmol/kgH2O). […]
The myocytes were selected for the study according to the following criterion: a rod-like aspect with very apparent striations and no intracellular vacuola, no spontaneous contraction when they are stimulated with 1 mM Ca^2+, and with constant rest length and contraction amplitude. The length of the sarcomers was measured by means of a video image analysis program and the data were acquired at a rate of 240 samples/s. […]
(§1) Apoptosis is induced in isolated cardiomyocytes by 3-8 hour exposure to 1 μM of doxorubicin added into an isotonic solution containing (in mM) NaCl 110, KCl 5.4, Na2PO4 0.33, NaHCO3 25, glucose 5, MgCl2 0.8, CaCl2 1, pH adjusted to 7.4. […] The contractility of cardiomyocytes was measured every hour during the 8 hrs of exposure to doxorubicin. […]

[3] = system: rabbit ventricular cardiomyocytes; test: Annexin V marking of phosphatidylserine (apoptosis) after doxorubicin; type: cell-based; conditions: doxorubicin 1 μM alone, 3 hrs; control 100%
Protocol: (§2) Isolated ventricular cells are obtained from hearts of male New Zealand rabbits as described in A. d'Anglemont de Tassigny et al., Fund. Clin. Pharmacol, 18: 531-38, 2004. Briefly, the rabbits (2.0-2.5 kg) are anaesthetized with a pentobarbital solution (50 mg/kg) and they then receive heparin (200 IU/kg). The hearts are excised and immediately perfused, for 10-15 minutes by means of a Langendorff apparatus without recirculation with an oxygenated tyrode (calcium-free) isotonic solution (95%, 2-5% CO2) (in mM: NaCl 135, KCl 5.4, Na2PO4 0.33, MgCl2 1.0, HEPES 10, pH adjusted to 7.4 with 1N NaOH at 37° C., 280-300 mOsmol/kgH2O). Next, all the hearts are perfused for 3 minutes in the “recirculation” mode with the same calcium-free Tyrode solution (coronary flow rate, 10-15 mL/min) added with 1 mg/mL of type II collagenase and 0.28 mg/mL of XIV type protease. Finally, all the hearts are perfused in a mode without any recirculation with the same solution of Tyrode supplemented with 0.3 mM of CaCl2 for 10 min. The left ventricle is removed and cut into small pieces; cell dissociation is achieved by mild mechanical stirring. Extracellular calcium is added by increments every 15 minutes, in order to reach a physiological concentration of 1.0 mM. […]
Annexin V marking of phosphatidylserine was used as a quantitative method for measuring apoptosis by using the MiniMacs cell isolation kit (Miltenyi Biotec, Bergisch, Gladbach, Germany). […] The column is removed from the magnetic field, the cells exposing phosphatidylserine, magnetically retained, are eluted as a positive fraction and counted with a Mallassez cell counter. […]
as §1

[4] = system: caspase-3; test: Caspase-3 activity (apoptosis) after doxorubicin; type: cell-based, rabbit; conditions: doxorubicin 1 μM alone, 8 hrs; control 19±9
Protocol: as §2
Caspase-3 activity is used as a quantitative method for measuring apoptosis. […] The fluorogenic substrate for measuring caspase-3 activity (DEVD) is marked with the fluorochrome, 7-amino-4-methyl coumarine (AMC), which produces […] fluorescence detectable in UV light at 360/460 nm for 210 min. […]
as §1

[5] = 3.9 mg/kg i.v. bolus in water 5 min before reperfusion, 30 min occlusion, 24 h reperfusion, mean±SEM

Row | SMILES | Area of risk (percentage of the weight of the left ventricle) [1, 5] | Infarction size (percentage of the weight of the area of risk) [1, 5] | Infarction size reduction ([1]; 3.9 mg/kg i.v., versus carrier (water)) [%] | shortening of the peak relatively to the base line [2] [%] | Apoptosis as % of change in annexin V marking [3] [%] | caspase-3 activity [4] [fmol/min]
1 | CC(C)CCC[C@@H](C)[C@H]1CC[C@H]2[C@@H]3CCC(=NO)[C@](C)(CCCOC(=O)CN(C)C)[C@H]3CC[C@]12C [3,5-seco-4-nor-cholestan-5-one oxime-3-N,N-dimethylglycine ester] | 8 +/− 3% | 23 +/− 9% | 42.5 |  |  | 
2 | COc1cccc2c1C(=O)c1c(O)c3c(c(O)c1C2=O)C[C@@](O)(C(=O)CO)C[C@@H]3O[C@H]1C[C@H](N)[C@H](O)[C@H](C)O1 [doxorubicin, reference compound] |  |  |  | −53.20±7.70 | 320 | 120 ± 15
